Data taken from US20130067616A1, “Plant Defensive Peptides” (priority 2010, published 2013).
Ends that are not written are not given here.

Tests used:
Rhizoctonia solani = test: Inhibitory concentrations of antimicrobial peptides and antibiotics against Rhizoctonia solani in vitro; format: cell-based; parameters: MIC, minimum concentration that completely inhibits growth of fungal cells: unit: μM; conditions: for IC50: ± std, read-out: IC50, concentration that inhibits 50% growth of fungal cultures vs control
[1] = system: phytopathogenic bacteria and fungi; test: Antibacterial and antifungal resistance of Arabidopsis expressing antimicrobial peptides; format: in vivo; conditions: carbonic anhydrase promoter, rice endochitinase signal peptide
Text: Including the acidic peptide is thus a preferred aspect of practicing the invention, although it may not be required. Tagging the βPTH precursor with EGFP greatly impaired antimicrobial activity in the mature peptide, even though EGFP was fused to the C-terminus of the acidic protein, the portion that was post-translationally cleaved.

fungal cultures = conditions: literature values (Thevissen et al. 1996; Oard et al. 2004); read-out: IC50, concentration of a peptide that inhibits 50% growth of fungal cultures relative to control; cited from earlier work
[2] = system: Neurospora crassa and Saccharomyces cerevisiae; parameters: dose or concentration left out as unconfirmed; conditions: concentration as low as; cited from earlier work

| Molecule | MIC, minimum concentration that completely inhibits growth of fungal cells (Rhizoctonia solani) [µmol] | IC50 (Rhizoctonia solani) [nM] | Antimicrobial resistance in vivo of Arabidopsis expressing the peptide [1] | IC50 (fungal cultures) [nM] | Inhibition of fungal growth [2] |
| --- | --- | --- | --- | --- | --- |
| CC[C@H](C)[C@H](NC(=O)CN)C(=O)NCC(=O)N[C@@H](C)C(=O)N[C@H](C(=O)N[C@@H](CC(C)C)C(=O)N[C@@H](CCCCN)C(=O)N[C@H](C(=O)N[C@@H](CC(C)C)C(=O)N[C@H](C(=O)N[C@H](C(=O)NCC(=O)N[C@@H](CC(C)C)C(=O)N1CCC[C@H]1C(=O)N[C@@H](C)C(=O)N[C@@H](CC(C)C)C(=O)N[C@H](C(=O)N[C@@H](CO)C(=O)N[C@@H](Cc1c[nH]c2ccccc12)C(=O)N[C@H](C(=O)N[C@@H](CCCCN)C(=O)N[C@@H](CCCNC(=N)N)C(=O)N[C@@H](CCCCN)C(=O)N[C@@H](CCCNC(=N)N)C(=O)N[C@@H](CCC(N)=O)C(=O)N[C@@H](CCC(N)=O)C(N)=O)[C@@H](C)CC)[C@@H](C)CC)[C@@H](C)O)[C@@H](C)O)C(C)C)C(C)C [Melittin] | 13.1 | 7100 ± 600 |  |  |  |
| C[C@@H]([C@H](N)C(=O)N[C@H](C(=O)O)[C@H]1O[C@@H](n2ccc(=O)[nH]c2=O)[C@H](O)[C@@H]1O)[C@H](O)c1ccc(O)cn1 [Nikkomycin Z] | 4.5 | 860 ± 100 |  |  |  |
| C[C@@H]1[C@H](O)[C@@H](C)/C=C/C=C/CC/C=C/C=C/C=C/C=C/C(O[C@H]2O[C@H](C)[C@@H](O)[C@H](N)[C@@H]2O)CC2O[C@](O)(CC(O)C(O)CCC(O)CC(O)CC(O)CC(=O)O[C@H]1C)CC(O)C2C(=O)O (some centres unmarked) [Nystatin] | 5.2 | 1100 ± 300 |  |  |  |
| Cecropin B (KWKVFKKIEKMGRNIRNGIVKAGPAIAVLGEAKAL; ends and bridges not checked; UniProt P01508 27-61, looked up) [natural 35-residue peptide from the Cecropia moth] | 9.8 | 4600 ± 300 | only antibacterial activity, not antifungal activity |  |  |
| Magainin II | 30.2 | 15700 ± 900 |  |  |  |
| α-Hordothionin (KSCCRSTLGRNCYNLCRVRGAQKLCAGVCRCKLTSSGKCPTGFPK) [barley seed-specific thionin, GenBank X05901] |  |  |  | 1000 |  |
| α-purothionin |  |  |  |  | up to 50% |
| β-Purothionin [βPTH] | 5.02 | 1140 ± 400 | the greatest antibacterial and antifungal resistance | 1100 |  |
